Legend:
[1] = test system: Ten CoV 3CL^pro's (FIPV-, PEDV-, NL63-, HKU1-, OC43-, SARS-, HKU4-, HKU5-, HKU9-, IBV-3CL^pro); format: biochemical, coronaviruses (α-, β-, γ-CoV)
SARS-3CL^pro = SARS-3CL^pro (Severe acute respiratory syndrome coronavirus (SARS-CoV), UniProt P0C6X7); format: biochemical

| Structure (SMILES) | inhibition of any 3CL^pro [1] [%] | Gini Coefficient [1] | IC50 (SARS-3CL^pro) [nM] | Score (performance metric score) [1] |
| --- | --- | --- | --- | --- |
| CC(C)C(=O)Nc1ccc(N(C(=O)Cn2nnc3ccccc32)C(C(=O)NCc2ccccc2)c2cccc(Cl)c2)cc1 (stereo not drawn) [Compound 11, N-(4-(2-(1H-benzo[d][1,2,3]triazol-1-yl)-N-(2-(benzylamino)-1-(3-chlorophenyl)-2-oxoethyl)acetamido)phenyl)isobutyramide] | ≤ 50 |  |  |  |
| CC(C)(C)NC(=O)C(c1ccsc1)N(C(=O)Cc1coc2ccccc12)c1ccc(NC(=O)C2CC2)cc1 (stereo not drawn) [Compound 25, N-(4-(2-(benzofuran-3-yl)-N-(2-(tert-butylamino)-2-oxo-1-(thiophen-3-yl)ethyl)acetamido)phenyl)cyclopropanecarboxamide] | ≤ 50 | 0.39 |  |  |
| Cc1cccc2c(CC(=O)N(c3ccc(NC(=O)C(C)C)cc3)C(C(=O)NCc3ccccc3)c3cccc(F)c3)c[nH]c12 (stereo not drawn) [Compound 57, N-(4-(N-(2-(benzylamino)-1-(3-fluorophenyl)-2-oxoethyl)-2-(7-methyl-1H-indol-3-yl)acetamido)phenyl)isobutyramide] | ≤ 50 | 0.38 |  |  |
| CC(C)(C)NC(=O)C(c1ccsc1)N(C(=O)CCc1nc2ccccc2[nH]1)c1ccc(NC(=O)C2CC2)cc1 (stereo not drawn) [Compound 62, N-(4-(3-(1H-benzo[d]imidazol-2-yl)-N-(2-(tert-butylamino)-2-oxo-1-(thiophen-3-yl)ethyl)propanamido)phenyl)cyclopropanecarboxamide] | ≤ 50 | 0.46 |  |  |
| CC(C)C(=O)Nc1ccc(N(C(=O)Cn2nnc3ccccc32)C(C(=O)NCc2ccccc2)c2ccncc2)cc1 (stereo not drawn) [Compound 16, N-(4-(2-(1H-benzo[d][1,2,3]triazol-1-yl)-N-(2-(benzylamino)-2-oxo-1-(pyridin-4-yl)ethyl)acetamido)phenyl)isobutyramide] | ≤ 50 | 0.52 |  |  |
| Cc1cccc2c(CC(=O)N(c3ccc(NC(=O)C4CC4)cc3)C(C(=O)NC(C)(C)C)c3ccsc3)c[nH]c12 (stereo not drawn) [Compound 61, N-(4-(N-(2-(tert-butylamino)-2-oxo-1-(thiophen-3-yl)ethyl)-2-(7-methyl-1H-indol-3-yl)acetamido)phenyl)cyclopropanecarboxamide] | ≤ 50 | 0.43 |  |  |
| Cc1cc(N(C(=O)c2c[nH]cn2)C(C(=O)NC(C)(C)C)c2cccnc2)ccc1Cl (stereo not drawn) [Compound 70, N-(2-(tert-butylamino)-2-oxo-1-(pyridin-3-yl)ethyl)-N-(4-chloro-3-methylphenyl)-1H-imidazole-4-carboxamide] |  | 0.33 |  |  |
| COc1cc(N(C(=O)c2c[nH]cn2)C(C(=O)NC(C)(C)C)c2cccnc2)cc(OC)c1OC (stereo not drawn) [Compound 69, N-(2-(tert-butylamino)-2-oxo-1-(pyridin-3-yl)ethyl)-N-(3,4,5-trimethoxyphenyl)-1H-imidazole-4-carboxamide] |  | 0.45 |  |  |
| CC(C)(C)NC(=O)C(c1cccnc1)N(C(=O)c1c[nH]cn1)c1cccc(C(C)(C)C)c1 (stereo not drawn) [Compound 71] |  | 0.30 |  |  |
| CC(C)C(=O)Nc1ccc(N(C(=O)CCc2nc3ccccc3[nH]2)C(C(=O)NCc2ccccc2)c2cccc(F)c2)cc1 (stereo not drawn) [Compound 58, 3-(1H-benzo[d]imidazol-2-yl)-N-(2-(benzylamino)-1-(3-fluorophenyl)-2-oxoethyl)-N-(4-isobutyramidophenyl)propanamide] |  | 0.40 |  |  |
| CC(C)C(=O)Nc1ccc(N(C(=O)C2CCN(C(=O)OC(C)(C)C)CC2)C(C(=O)NCc2ccccc2)c2cccc(F)c2)cc1 (stereo not drawn) [Compound 56, tert-butyl 4-((2-(benzylamino)-1-(3-fluorophenyl)-2-oxoethyl)(4-isobutyramidophenyl)carbamoyl) piperidine-1-carboxylate] |  | 0.34 |  |  |
| CC(C)C(=O)Nc1ccc(N(C(=O)Cn2nnc3ccccc32)C(C(=O)NCc2ccccc2)c2ccc(Cl)c(F)c2)cc1 (stereo not drawn) [Compound 55, N-(4-(2-(1H-benzo[d][1,2,3]triazol-1-yl)-N-(2-(benzylamino)-1-(4-chloro-3-fluorophenyl)-2-oxoethyl)acetamido)phenyl)isobutyramide] |  | 0.50 | 800 ± 100 | 9.8 |
| CC(C)C(=O)Nc1ccc(N(C(=O)Cn2nnc3ccccc32)C(C(=O)NCc2ccccc2)c2ccc(N(C)C)cc2)cc1 (stereo not drawn) [Compound 52, N-(4-(2-(1H-benzo[d][1,2,3]triazol-1-yl)-N-(2-(benzylamino)-1-(4-(dimethylamino)phenyl)-2-oxoethyl)acetamido)phenyl)isobutyramide] | ≤ 50 | 0.42 |  |  |
| CC(C)C(=O)Nc1ccc(N(C(=O)Cn2nnc3ccccc32)C(C(=O)NCc2ccccc2)c2ccc(Cl)cc2)cc1 (stereo not drawn) [Compound 12, N-(4-(2-(1H-benzo[d][1,2,3]triazol-1-yl)-N-(2-(benzylamino)-1-(4-chlorophenyl)-2-oxoethyl)acetamido)phenyl)isobutyramide] |  | 0.37 |  |  |
| Cc1nccn1CCC(=O)N(c1ccc(NC(=O)C2CC2)cc1)C(C(=O)NC(C)(C)C)c1ccsc1 (stereo not drawn) [Compound 63, N-(4-(N-(2-(tert-butylamino)-2-oxo-1-(thiophen-3-yl)ethyl)-3-(2-methyl-1H-imidazol-1-yl)propanamido)phenyl)cyclopropanecarboxamide] | ≤ 50 | 0.44 |  |  |
| CC(C)(C)NC(=O)C(c1ccsc1)N(C(=O)Cc1c[nH]c2ccccc12)c1ccc(NC(=O)C2CC2)cc1 (stereo not drawn) [Compound 26, N-(4-(N-(2-(tert-butylamino)-2-oxo-1-(thiophen-3-yl)ethyl)-2-(1H-indol-3-yl)acetamido)phenyl)cyclopropanecarboxamide] | ≤ 50 | 0.46 |  |  |
| CC(C)(C)NC(=O)C(c1ccsc1)N(C(=O)Cc1csc2ccccc12)c1ccc(NC(=O)C2CC2)cc1 (stereo not drawn) [Compound 24, N-(4-(2-(benzo[b]thiophen-3-yl)-N-(2-(tert-butylamino)-2-oxo-1-(thiophen-3-yl)ethyl)acetamido)phenyl)cyclopropanecarboxamide] | ≤ 50 | 0.40 |  |  |
| CC(C)C(=O)Nc1ccc(N(C(=O)Cc2coc3ccccc23)C(C(=O)NCc2ccccc2)c2cccc(F)c2)cc1 (stereo not drawn) [Compound 20, N-(4-(2-(benzofuran-3-yl)-N-(2-(benzylamino)-1-(3-fluorophenyl)-2-oxoethyl)acetamido)phenyl)isobutyramide] | ≤ 50 | 0.39 |  |  |
| CC(C)(C)NC(=O)C(c1ccsc1)N(C(=O)C1CCN(C(=O)OC(C)(C)C)CC1)c1ccc(NC(=O)C2CC2)cc1 (stereo not drawn) [Compound 60, tert-butyl 4-((2-(tert-butylamino)-2-oxo-1-(thiophen-3-yl)ethyl)(4-(cyclopropanecarboxamido)phenyl)carbamoyl)piperidine-1-carboxylate] | ≤ 50 | 0.60 |  |  |
| Cc1nccn1CCC(=O)N(c1ccc(NC(=O)C(C)C)cc1)C(C(=O)NCc1ccccc1)c1cccc(F)c1 (stereo not drawn) [Compound 59, N-(2-(benzylamino)-1-(3-fluorophenyl)-2-oxoethyl)-N-(4-isobutyramidophenyl)-3-(2-methyl-1H-imidazol-1-yl)propanamide] |  | 0.44 |  |  |
